Entries after “also recorded” stand apart in the source; their conditions may differ.
Tests used:
Assay type in all cases: cell-based, Candida albicans
[1] = system: C. albicans hyphae formation; experiment: filamentation assay (hyphal morphogenesis); settings: for inhibition of hyphal formation and induction of RFP: 12.5 μM, Spider media 16 hours, HWP1-RFP reporter
From the text: Because the ability to interconvert between yeast and hyphal morphologies is usually correlated with pathogenicity (Finkel, 2010), we explored this observation in more detail. First, we assessed the effect of our compounds on the induction of hyphae by “Spider” media (Chauhan, 2009). For this experiment, we used a strain that contains the hyphal-specific HWP1 promoter to the Red Fluorescent Protein (RFP) open reading frame (Ganguly, 2011), which provides a molecular reporter for hyphae formation that we used in addition to visual examination of cell morphology. We initially tested each of the compounds that inhibit adhesion to polystyrene (FIG. 1B), as well as compounds #9, Q1 and Q2 (FIG. 3A), at concentration of 12.5 μM. […] Compounds Q1 and Q2 share a “Scaffold 1” backbone with compounds #4 and #9, but contain a quinoline group (FIG. 3A). Therefore, the compounds with a quinoline group can inhibit hyphae formation, but not adhesion to polystyrene or human cells (FIG. 3). […] Additionally, multiple chemical backbones are able to inhibit hyphae formation, because compound #12 has a “Scaffold 2” backbone (Table 2). To better discriminate the inhibitory compounds, we tested #4, 12 and Q1 at lower concentrations. […] Furthermore, as in the polystyrene adhesion assay (FIG. 8), compound #4 is effective at inhibiting hyphae formation at concentrations >2.5 μM.
Overnight cultures of SC5314 or SGH584 were pregrown in uridine-supplemented SC media at 30° C. to an OD600>13 and diluted 1:10 into prewarmed Spider medium (1% Peptone (Difco), 1% Mannitol (Sigma) and 0.2% K2HPO4 (Sigma) (Chauhan, 2009) in glass tubes and grown for 16 hrs at 37° C. shaking at 200 rpm in the presence or absence of drugs as indicated. DIC and fluorescence images were acquired using a Zeiss Axiovert 200 inverted microscope equipped with a Qicam 12-bit Fast 1394 digital CCD camera (Qimaging). Image acquisition was carried out using Openlab 5 software (Improvison).
Because the ability to interconvert between yeast and hyphal morphologies is usually correlated with pathogenicity, we explored this in more detail, examining induction of hyphae upon carbon starvation (using Spider media). We used a strain that contains the Red Fluorescent Protein (RFP) open reading frame driven by the hyphal-specific HWP1 promoter (Ganguly et al., Eukaryotic Cell 10:1448, 2011), which provides a molecular reporter for hyphae formation in addition to cell morphology. […] Therefore, the shared backbone of these compounds correlates with inhibition of multiple activities.
Hyphal morphogenesis is induced by multiple stimuli that act via multiple signal transduction pathways and is mediated by a complex transcriptional network. […] We detected morphological difference between control and compound #4-treated cultures as early as 60 minutes in 10% serum, and 90 minutes in Spider media.

C. albicans = experiment: pretreatment (pre-coating) of polystyrene, then adhesion assay
Method: FIGS. 11A-11D. Compound #4 can coat surfaces and reduce subsequent fungal adhesion. […] is a graph showing the results of pretreatment of polystyrene with candidate compounds. Indicated compounds at 50 μM were incubated in polystyrene 96-well plates overnight. Wells were washed three times with 100 μl of PBS. C. albicans adhesion was then measured using the vital dye alamarBlue, with no additional drug treatment. FIG. 11B is a graph showing titration of compounds #1, 4 and 9 for pre-binding to polystyrene. Indicated concentrations of compounds were pre-incubated with polystyrene plates as above prior to the adhesion assays. FIG. 11C is a graph showing the inhibition of adhesion by pretreatment of C. albicans SC5314 cells with compound #4 prior to introduction to plastic. SC5314 cells were treated with 25 μM compound #4 or DMSO in liquid culture prior to their introduced into polystyrene plates. Cells were washed with PBS prior to resuspension into SCM and seeding into 96-well plates for adhesion assays using alamarBlue detection of remaining cells. The pretreated cells were assayed alongside a standard adhesion assay in which compound #4 and the cells were coincubated with the plastic simultaneously. FIG. 11D is a graph showing the results of an assay performed as in FIG. 11C, except that SC5314-GFP cells were used, and then detected via fluorescence measurement. edt1 indicates non-adherent mutant cells, PBS indicates background fluorescence in absence of cells.
Because compounds #4 and #9 contain a nitrophenyl group (FIG. 3A), solutions containing these appear yellow. […] To test this idea, we preincubated polystyrene plates with each of the compounds that affect adhesion to polystyrene, washed to remove unbound compound molecules, and then added C. albicans cells to measure adhesion without further addition of compound.
To distinguish the three pre-coating compounds, we then titrated them in this pre-coating assay (FIG. 11B). […] We also tested whether compound #4 could affect fungal adhesion when it was used to pre-coat C. albicans cells rather than the polystyrene surface. […] We conclude that compound #4 has the ability to make polystyrene and the C. albicans cell surface less amenable to subsequent adhesion.

[2] = system: C. albicans adherence to human lung epithelial A549 cells; experiment: epithelial cell binding assay; settings: 25 μM; 37° C., 90 min
From the text: In addition to experiments with inert surfaces, we also tested how the candidate compounds would affect C. albicans adherence to human cells, measuring binding of Green Fluorescent Protein (GFP)-encoding C. albicans cells to monolayers of human lung epithelial A549 cells, which are an effective substrate for Candida adhesion (Kitamura, Antimicrob Agents Chemother. 53: 3963-3971, 2009). […] We conclude that compound #4 is not toxic to this human cell line under our assay concentrations, but can impair fungal adhesion both to inert surfaces and to cultured human epithelial cells.
Human lung epithelial A549 cells (Giard, 1973) were grown to confluence on Nunc 48 well plates in RPMI+10% FBS and Penicillin/Streptomycin. Media was decanted and plates were carefully washed 3 times with PBS to remove unbound cells. Pre-grown overnight cultures of SC5314-GFP and edt1^−/−-GFP C. albicans cells were resuspended in fresh SC+0.2% glucose at 0.5 OD/ml and 250 μl of yeast suspension were plated onto to each well. Following incubation at 37° C. for 1.5 hours, media was decanted, and the monolayers were washed carefully 3 times with 250 μl PBS. Fluorescence from bound yeast was measured (485 Ex/535 Em) using the Synergy HT plate reader (BioTek) after addition of 100 μl PBS/well.

Row | SMILES | hyphae formation induced by Spider media ([1]; 10 μM) | inhibition of hyphal formation and induction of RFP [1] | earliest morphological difference between control and treated cultures ([1]; 10% serum) | hyphal response to Spider media and mammalian serum ([1]; 37° C.) | concentrations effective at inhibiting hyphae formation ([1]; Spider media) | earliest morphological difference between control and treated cultures ([1]; Spider media) | formation of hyphae ([1]; Spider media, HWP1-RFP reporter (Example 14)) | time at which effect could be detected after Spider media addition ([1]; protein reporter assay) | subsequent adhesion of C. albicans to pre-coated polystyrene (C. albicans; 12.5 μM or below) | subsequent adhesion of C. albicans to pre-coated polystyrene (C. albicans; 25 μM) | subsequent adhesion of C. albicans to pre-coated polystyrene (C. albicans; 50 μM, overnight, washed) | inhibition of C. albicans adhesion to human A549 cells [2]
1 | Cc1ccc(C(=O)N2CCN(c3ccc([N+](=O)[O-])cc3)CC2)cc1Cl [Compound 4] | completely blocked the hyphae formation | most potently inhibited hyphal formation and induction of RFP | 60 minutes | inhibited the response to both these stimuli | > 2.5 µM | 90 minutes | blocked formation of hyphae | within two hours | much less so | strongly inhibitory | efficiently inhibited subsequent adhesion | by far the strongest inhibitor of adhesion to human epithelial cells; also recorded: strongly inhibited
2 | O=C(c1ccc(Cl)c(Cl)c1)N1CCN(c2ccc([N+](=O)[O-])cc2)CC1 [Compound 9] |  | most potently inhibited hyphal formation and induction of RFP |  |  |  |  |  |  | much less so | strongly inhibitory | efficiently inhibited subsequent adhesion | not #9 effectively inhibited human cell binding

— US9648880B2, “Antifungal agents and uses thereof” (University of Massachusetts, priority 2012, dated 2017)
